In US20240383923A1, “HETEROARYL DERIVATIVE AND USE THEREOF” (VORONOI INC., priority 2022, published 2024):

System: BT-474 cancer cells
Test: Inhibition of BT-474 cell proliferation (CellTiter-Glo)
Type: cell-based
Conditions: Homo sapiens, BT-474 cells, 120 hours
Procedure: BT-474 cancer cells were cultured by using RPMI-1640 medium containing 20% FBS. The BT-474 cancer cells were seeded to a white clear bottom 96 well plate (Corning) at 5,000 cells per well 48 hours before the BT-474 cancer cells were treated with Example Compounds. Example Compounds were diluted in dimethylsulfoxide (3-fold diluted, total 11 concentrations) and 1 μL each was injected so that the final concentration was 0.2 nM to 10 μM. For the measurement of living cells, the cells were stored at room temperature for 10 minutes using the CellTiter-Glo cell viability reagent (Promega) after a predetermined time (120 hours) after the treatment of Example Compounds, and then the luminescence intensity was measured using a reader (SynergyNeo, Biotek). Each test was repeated three times.
The result value was calculated as a cell growth rate (%) compared to a control group. Graphs were plotted and GI50 values were calculated using the GraphPad Prism version 8.0 program, and the results are shown in Table 18 below.

Row | Compound | GI50
1 | COc1cc2ncnc(Nc3cc(C)c(Oc4ccn5ncnc5c4)cc3OC)c2cc1NC(=O)/C=C/CNC1CCS(=O)(=O)CC1 [Example 38, (E)-N-(4-((4-([1,2,4]triazolo[1,5-a]pyridin-7-yloxy)-2-methoxy-5-methylphenyl)amino)-7-methoxyquinazolin-6-yl)-4-((1,1-dioxidotetrahydro-2H-thiopyran-4-yl)amino)but-2-enamide] | ≤ 50 nM
2 | COc1cc2ncnc(Nc3cc(N(C)C)c(Oc4ccn5ncnc5c4)cc3OC)c2cc1NC(=O)/C(F)=C\[C@H]1CCCN1C [Example 127, (R,E)-N-(4-((4-([1,2,4]triazolo[1,5-a]pyridin-7-yloxy)-5-(dimethylamino)-2-methoxyphenyl)amino)-7-methoxyquinazolin-6-yl)-2-fluoro-3-(1-methylpyrrolidin-2-yl)acrylamide] | 100 to 500 nM
3 | COc1cc2ncnc(Nc3cc(C)c(Oc4ccc5c(c4)NC(O)O5)cc3OC)c2cc1NC(=O)/C(F)=C/[C@H]1CCCN1C (stereo partly drawn) [Example 70, (Z)-2-fluoro-N-(4-((4-((2-hydroxy-2,3-dihydrobenzo[d]oxazol-5-yl)oxy)-2-methoxy-5-methylphenyl)amino)-7-methoxyquinazolin-6-yl)-3-((R)-1-methylpyrrolidin-2-yl)acrylamide] | ≤ 50 nM
4 | COc1cc2ncnc(Nc3cc(C4CC4)c(Oc4ccn5ncnc5c4)cc3OC)c2cc1NC(=O)/C(F)=C/[C@H]1CCCN1C [Example 137, (R,Z)—N-(4-((4-([1,2,4]triazolo[1,5-a]pyridin-7-yloxy)-5-cyclopropyl-2-methoxyphenyl)amino)-7-methoxyquinazolin-6-yl)-2-fluoro-3-(1-methylpyrrolidin-2-yl)acrylamide] | 50 to 100 nM
5 | COc1cc2ncnc(Nc3cc(C)c(Oc4cnc5ccnn5c4)cc3OC)c2cc1NC(=O)/C(F)=C\[C@H]1CCCN1C [Example 79, (R,E)-2-fluoro-N-(7-methoxy-4-((2-methoxy-5-methyl-4-(pyrazolo[1,5-a]pyrimidin-6-yloxy)phenyl)amino)quinazolin-6-yl)-3-(1-methylpyrrolidin-2-yl)acrylamide] | ≤ 50 nM
6 | COc1cc2ncnc(Nc3cc(C)c(Oc4ccc(C(=O)N(C)C)cc4)cc3OC)c2cc1NC(=O)/C(F)=C/[C@H]1CCCN1C [Example 125, (R,Z)-4-(4-((6-(2-fluoro-3-(1-methylpyrrolidin-2-yl)acrylamido)-7-methoxyquinazolin-4-yl)amino)-5-methoxy-2-methylphenoxy)-N,N-dimethylbenzamide] | 50 to 100 nM
7 | COc1cc2ncnc(Nc3cc(C)c(Oc4ccn5ncnc5c4)cc3OC)c2cc1NC(=O)/C(F)=C/[C@H]1CCCN1 [Example 135, (R,Z)—N-(4-((4-([1,2,4]triazolo[1,5-a]pyridin-7-yloxy)-2-methoxy-5-methylphenyl)amino)-7-methoxyquinazolin-6-yl)-2-fluoro-3-(pyrrolidin-2-yl)acrylamide] | ≤ 50 nM
8 | COc1cc2ncnc(Nc3ccc(Oc4ccn5ncnc5c4)cc3OC3COC3)c2cc1NC(=O)/C(F)=C\[C@H]1CCCN1C(=O)OC(C)(C)C [Example 109, tert-butyl (R,E)-2-(3-((4-((4-([1,2,4]triazolo[1,5-a]pyridin-7-yloxy)-2-(oxetan-3-yloxy)phenyl)amino)-7-methoxyquinazolin-6-yl)amino)-2-fluoro-3-oxoprop-1-en-1-yl)pyrrolidine-1-carboxylate] | > 500 nM
9 | COc1cc(Oc2ccn3ncnc3c2)c(C)cc1Nc1ncnc2cc(OC3CCOC3)c(NC(=O)/C(F)=C/[C@H]3CCCN3C)cc12 (stereo partly drawn) [Example 97, (Z)—N-(4-((4-([1,2,4]triazolo[1,5-a]pyridin-7-yloxy)-2-methoxy-5-methylphenyl)amino)-7-((tetrahydrofuran-3-yl)oxy)quinazolin-6-yl)-2-fluoro-3-((R)-1-methylpyrrolidin-2-yl)acrylamide] | ≤ 50 nM
10 | C=CC(=O)N1CCOc2cc3ncnc(Nc4cc(C)c(Oc5ccn6ncnc6c5)cc4OC)c3cc21 [Example 21, 1-(4-((4-([1,2,4]triazolo[1,5-a]pyridin-7-yloxy)-2-methoxy-5-methylphenyl)amino)-7,8-dihydro-6H-[1,4]oxazino[3,2-g]quinazolin-6-yl)prop-2-en-1-one] | 100 to 500 nM
11 | COc1cc2ncnc(Nc3cc(C)c(Oc4ccn5ncnc5c4)cc3OC)c2cc1NC(=O)/C(F)=C/[C@@H]1CCCN1C [Example 112, (S,Z)—N-(4-((4-([1,2,4]triazolo[1,5-a]pyridin-7-yloxy)-2-methoxy-5-methylphenyl)amino)-7-methoxyquinazolin-6-yl)-2-fluoro-3-(1-methylpyrrolidin-2-yl)acrylamide] | ≤ 50 nM
12 | COc1cc2ncnc(Nc3cc(C)c(Oc4ccc5ccccc5c4)cc3OC)c2cc1NC(=O)/C(F)=C\[C@H]1CCCN1C [Example 65, (R,E)-2-fluoro-N-(7-methoxy-4-((2-methoxy-5-methyl-4-(naphthalen-2-yloxy)phenyl)amino)quinazolin-6-yl)-3-(1-methylpyrrolidin-2-yl)acrylamide] | ≤ 50 nM
13 | COc1cc(Oc2ccn3ncnc3c2)c(C)cc1Nc1ncnc2cc(OCCN3CCOCC3)c(NC(=O)/C(F)=C/[C@H]3CCCN3C)cc12 [Example 101, (R,Z)—N-(4-((4-([1,2,4]triazolo[1,5-a]pyridin-7-yloxy)-2-methoxy-5-methylphenyl)amino)-7-(2-morpholinoethoxy)quinazolin-6-yl)-2-fluoro-3-(1-methylpyrrolidin-2-yl)acrylamide] | ≤ 50 nM
14 | COc1cc2ncnc(Nc3cc(C)c(Oc4ccc5ncsc5c4)cc3OC)c2cc1NC(=O)/C(F)=C/[C@H]1CCCN1C [Example 82, (R,Z)—N-(4-((4-(benzo[d]thiazol-6-yloxy)-2-methoxy-5-methylphenyl)amino)-7-methoxyquinazolin-6-yl)-2-fluoro-3-(1-methylpyrrolidin-2-yl)acrylamide] | ≤ 50 nM
15 | COc1cc2ncnc(Nc3cc(C)c(Oc4cccc(NC(C)=O)c4)cc3OC)c2cc1NC(=O)/C(F)=C/[C@H]1CCCN1C [Example 133, (R,Z)—N-(4-((4-(3-acetamidophenoxy)-2-methoxy-5-methylphenyl)amino)-7-methoxyquinazolin-6-yl)-2-fluoro-3-(1-methylpyrrolidin-2-yl)acrylamide] | ≤ 50 nM
16 | COCCOc1cc2ncnc(Nc3cc(C)c(Oc4ccn5ncnc5c4)cc3OC)c2cc1NC(=O)/C(F)=C\[C@H]1CCCN1C [Example 94, (R,E)-N-(4-((4-([1,2,4]triazolo[1,5-a]pyridin-7-yloxy)-2-methoxy-5-methylphenyl)amino)-7-(2-methoxyethoxy)quinazolin-6-yl)-2-fluoro-3-(1-methylpyrrolidin-2-yl)acrylamide] | ≤ 50 nM
17 | COc1cc2ncnc(Nc3cc(C)c(Oc4ccc5cnn(C)c5c4)cc3OC)c2cc1NC(=O)/C(F)=C/[C@H]1CCCN1C [Example 90, (R,Z)-2-fluoro-N-(7-methoxy-4-((2-methoxy-5-methyl-4-((1-methyl-1H-indazol-6-yl)oxy)phenyl)amino)quinazolin-6-yl)-3-(1-methylpyrrolidin-2-yl)acrylamide] | ≤ 50 nM
18 | COc1cc2ncnc(Nc3cc(Cl)c(Oc4ccc5c(c4)ncn5C)cc3OC)c2cc1NC(=O)/C(F)=C\[C@H]1CCCN1C [Example 59, (R,E)-N-(4-((5-chloro-2-methoxy-4-((1-methyl-1H-benzo[d]imidazol-5-yl)oxy)phenyl)amino)-7-methoxyquinazolin-6-yl)-2-fluoro-3-(1-methylpyrrolidin-2-yl)acrylamide] | ≤ 50 nM
